Source: patent US5541199A, “Chroman-2-ylmethylamino derivatives” (American Home Products Corporation, priority 1995, dated 1996)

Key:
D2 [1] = biological target: T1, D2 (Rattus norvegicus, UniProt P61169); test: Affinity for the dopamine autoreceptor: 3H-quinpirole (Quin.) binding, homogenized rat striatal brain tissue; set-up: homogenized rat striatal brain tissue; from tissue; host or cells: rat striatal brain tissue, homogenized
α1 = α1 IC50; type: binding
D2 [2] = biological target: T1, D2; test: Affinity for the dopamine D-2 receptor: 3H-spiroperidol (Spiper.) binding, homogenized limbic brain tissue; set-up: homogenized limbic brain tissue is incubated with; from tissue; host or cells: limbic brain tissue, homogenized
5-HT1a = biological target: T2, 5-HT1a (Homo sapiens, UniProt P08908); test: 5-HT1a IC50; type: binding
T2 sequence (P08908 1-422): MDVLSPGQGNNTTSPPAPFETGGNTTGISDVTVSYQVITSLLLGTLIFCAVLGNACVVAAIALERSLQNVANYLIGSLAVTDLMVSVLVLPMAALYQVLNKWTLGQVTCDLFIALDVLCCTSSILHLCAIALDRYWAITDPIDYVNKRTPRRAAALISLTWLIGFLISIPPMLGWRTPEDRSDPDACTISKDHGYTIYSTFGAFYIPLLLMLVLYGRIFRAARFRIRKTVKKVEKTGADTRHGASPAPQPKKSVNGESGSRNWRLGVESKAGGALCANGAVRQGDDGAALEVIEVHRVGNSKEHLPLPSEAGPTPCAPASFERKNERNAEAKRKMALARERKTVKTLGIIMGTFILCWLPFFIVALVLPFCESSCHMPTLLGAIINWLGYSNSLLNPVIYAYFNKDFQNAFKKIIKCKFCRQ

T1 sequence (P61169 whole entry): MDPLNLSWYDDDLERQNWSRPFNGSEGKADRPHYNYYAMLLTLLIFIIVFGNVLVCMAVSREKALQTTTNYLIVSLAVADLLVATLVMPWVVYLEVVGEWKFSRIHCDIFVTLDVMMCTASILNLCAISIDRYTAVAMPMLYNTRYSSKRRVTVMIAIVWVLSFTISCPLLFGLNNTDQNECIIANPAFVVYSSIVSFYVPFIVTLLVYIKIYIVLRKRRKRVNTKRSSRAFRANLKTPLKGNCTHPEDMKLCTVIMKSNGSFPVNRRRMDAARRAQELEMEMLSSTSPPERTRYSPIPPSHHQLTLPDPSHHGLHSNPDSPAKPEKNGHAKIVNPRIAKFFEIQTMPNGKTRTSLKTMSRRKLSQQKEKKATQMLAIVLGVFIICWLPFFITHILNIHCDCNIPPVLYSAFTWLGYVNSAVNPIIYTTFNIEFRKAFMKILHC

O=C1CCC(=O)N1CCCNCC1CCc2ccc(O)cc2O1 (centres unmarked) [Example 3d, 1-{3-[(7-Hydroxy-chroman-2-ylmethyl)-amino]-propyl}-pyrrolidine-2,5-dione]
IC50 (D2 [1]; 3H-quinpirole, rat striatal brain tissue): 9.29 nM | Ratio (D2 [1]; not defined in print, values match D2 Spiper. IC50 / D2 Quin. IC50): 234 | IC50 (α1): 277 nM | IC50 (D2 [2]): 2180 nM | IC50 (5-HT1a): 303 nM
